The source of these data is ChEMBL document CHEMBL5223062, “Tumor pyruvate kinase M2 modulators: a comprehensive account of activators and inhibitors as anticancer agents” (RSC Med Chem, 2021).

As a reminder, the AC50 is the concentration at which the activity in the assay is half-maximal. A low value points to activity at low concentration. In general, IC50 refers to the concentration that inhibits the measured activity by half. A word on the inhibition: it is the relative decrease from the control value, in per cent. Lower therefore signals little suppression.

Assay [1] deals with T1, Pyruvate kinase PKM (Homo sapiens, UniProt P14618). The assay can be described thus: Activation of PKM2 (unknown origin).
Target sequence in this assay (P14618 whole entry): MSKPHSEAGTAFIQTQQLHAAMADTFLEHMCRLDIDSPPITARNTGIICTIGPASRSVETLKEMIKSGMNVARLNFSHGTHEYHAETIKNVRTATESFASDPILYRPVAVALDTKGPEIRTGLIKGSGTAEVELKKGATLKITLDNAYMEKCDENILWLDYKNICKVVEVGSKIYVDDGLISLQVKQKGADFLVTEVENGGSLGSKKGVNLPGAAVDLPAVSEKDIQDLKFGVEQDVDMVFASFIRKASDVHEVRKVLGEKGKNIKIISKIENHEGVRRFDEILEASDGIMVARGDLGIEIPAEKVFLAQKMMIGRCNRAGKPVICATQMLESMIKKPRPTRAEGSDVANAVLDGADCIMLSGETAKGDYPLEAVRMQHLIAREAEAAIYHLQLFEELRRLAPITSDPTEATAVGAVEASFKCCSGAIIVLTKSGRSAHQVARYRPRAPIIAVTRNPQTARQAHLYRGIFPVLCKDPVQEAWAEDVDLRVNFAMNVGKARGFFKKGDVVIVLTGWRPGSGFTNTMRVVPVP
Assay [2] deals with T1, Pyruvate kinase PKM. Kind of assay: Binding affinity to PKM2 (unknown origin) assessed as Gibbs free energy.
Target sequence in this assay (P14618 2-531 limits assumed): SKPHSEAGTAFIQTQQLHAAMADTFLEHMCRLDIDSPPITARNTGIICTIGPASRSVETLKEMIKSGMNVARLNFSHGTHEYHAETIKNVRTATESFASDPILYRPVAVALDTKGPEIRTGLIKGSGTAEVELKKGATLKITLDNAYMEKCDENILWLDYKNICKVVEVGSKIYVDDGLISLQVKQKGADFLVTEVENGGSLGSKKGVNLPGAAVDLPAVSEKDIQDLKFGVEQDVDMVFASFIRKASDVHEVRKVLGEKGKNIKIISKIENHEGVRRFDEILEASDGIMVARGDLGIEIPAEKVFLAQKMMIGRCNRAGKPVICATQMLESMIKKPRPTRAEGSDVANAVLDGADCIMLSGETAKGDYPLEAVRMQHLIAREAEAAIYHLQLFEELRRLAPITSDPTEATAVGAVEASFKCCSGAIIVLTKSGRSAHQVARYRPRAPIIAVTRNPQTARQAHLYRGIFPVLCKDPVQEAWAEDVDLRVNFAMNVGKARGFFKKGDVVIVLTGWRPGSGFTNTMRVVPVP
Assay [3] deals with T1, Pyruvate kinase PKM. The assay can be described thus: Inhibition of PKM2 (unknown origin).
Target sequence in this assay (P14618 whole entry): as the sequence (P14618 whole entry) above
For assay [4], the system named is NCI-H1299. Kind of assay: Antiproliferative activity against human NCI-H1299 cells assessed as cell growth inhibition. Format: functional, cell-based.
The test system of the next assay is HCT-116. The assay can be described thus: Antiproliferative activity against human HCT-116 cells assessed as cell growth inhibition. Format: functional, cell-based.
A further assay relates to HeLa. The assay can be described thus: Antiproliferative activity against human HeLa cells assessed as cell growth inhibition. It counts as functional, cell-based.
Another assay deals with PC-3. Kind of assay: Antiproliferative activity against human PC-3 cells assessed as cell growth inhibition. Format: functional, cell-based.
The next assay deals with DLD-1. Kind of assay: Antiproliferative activity against human DLD-1 cells assessed as cell growth inhibition. Format: functional, cell-based.
Another assay concerns HT-29. Kind of assay: Antiproliferative activity against human HT-29 cells assessed as cell growth inhibition. Format: functional, cell-based.
Assay [5] has as its target T1, Pyruvate kinase PKM. Kind of assay: Inhibition of PKM2 (unknown origin) at 10 uM relative to control.
Target sequence in this assay (P14618 2-531 limits assumed): as the sequence (P14618 2-531 limits assumed) above
Assay [6] addresses T1, Pyruvate kinase PKM. Kind of assay: Inhibition of PKM1 (unknown origin) at 10 uM relative to control.
Target sequence in this assay (P14618 2-531 limits assumed): as above
The subject of assay [7] is NCI-H1299. The assay can be described thus: Inhibition of glycolysis in human NCI-H1299 cells. It counts as functional.
The target in assay [8] is T1, Pyruvate kinase PKM. The assay can be described thus: Activation of PKM2 in human NCI-H1299 cells. It counts as cell-based.
Target sequence in this assay (P14618 whole entry): as the sequence (P14618 whole entry) above

`Nc1cccc(S(=O)(=O)N2CCCN(S(=O)(=O)c3ccc4c(c3)OCCO4)CC2)c1` displayed an AC50 at Pyruvate kinase PKM [1] of 30 nM. On to `CC(C)=CC[C@@H](O)C1=CC(=O)c2c(O)ccc(O)c2C1=O` [SHIKONIN], for which, on Pyruvate kinase PKM [2], the deltaG was -7.98 kcal/mol. At Pyruvate kinase PKM [3], this molecule had an IC50 of 1420 nM. Regarding `O=C(O)/C=C/c1ccc(O)cc1` [COUMARIC ACID], on Pyruvate kinase PKM [1], the half-maximal activity concentration (AC50) came out at 22200 nM. This counts as double-digit micromolar. On to `CC1=C(CSC(=S)N2CCCCC2)C(=O)c2ccccc2C1=O`, for which the half-inhibitory concentration (IC50) with NCI-H1299 [4], in the assay on HCT-116 and in the assay on HeLa was 2950 nM in each case. Take `COc1cc(/C=C/C(=O)O)cc(OC)c1O` [SINAPINATE]: the AC50 at Pyruvate kinase PKM [1] was determined as 26200 nM. That is a double-digit micromolar value. `C=C1C(=O)O[C@H]2C1CCC(C)=C1CC[C@@](C)(O)[C@@H]12` (stereo not given in full) displayed an AC50 at Pyruvate kinase PKM [1] of 6 nM. Molecule `O=C(c1cc(C(F)(F)F)n[nH]1)N(Cc1ccc(O)cc1F)CC1CCC1` registered an AC50 on Pyruvate kinase PKM [1] of 10 nM. Still for that read-out and setting: next, `O=c1c(O)c(-c2cc(O)c(O)c(O)c2)oc2cc(O)cc(O)c12` [MYRICETIN]: 510 nM. In the case of `O=S(=O)(Nc1ccc(C2(O)CSC(=S)N2Cc2ccccc2)cc1)c1ccc2c(c1)OCCO2` (stereo not given), the 50% inhibitory concentration (IC50) with HCT-116, in the assay with HeLa and in the assay with PC-3 was 460 nM each time. The same molecule displayed an AC50 on Pyruvate kinase PKM [1] of 3140 nM. As for `O=c1cc(-c2ccc(O)cc2)oc2cc(O)cc(O)c12` [APIGENIN], the half-maximal inhibitory concentration (IC50) amounted to 89500 nM with DLD-1, 27900 nM in the assay on HCT-116 and 2000 nM in the assay with HT-29.

With `CCCCCN1/C(=C\C=C\C2N(CCCC)c3cc(Cl)c(Cl)cc3N2CCCCC)N(CCCC)c2cc(Cl)c(Cl)cc21` (stereo not given), the inhibition against Pyruvate kinase PKM [5] is 86%; against Pyruvate kinase PKM [6] it was 31%. On to `O=P(O)(O)OC[C@H]1O[C@](O)(COP(=O)(O)O)[C@@H](O)[C@@H]1O` [FOSFRUCTOSE], for which the half-maximal activity concentration (AC50) on Pyruvate kinase PKM [1] amounted to 7000 nM. `O=C1CCc2cc(S(=O)(=O)Nc3ccc(F)c(Cl)c3)c(F)cc2N1` had an AC50 on Pyruvate kinase PKM [1] of 90 nM. `C=C1C(=O)O[C@@H]2[C@H]3O[C@]3(C)CC/C=C(/C(=O)OCCOCCOC(=O)/C3=C/CC[C@@]4(C)O[C@@H]4[C@H]4OC(=O)C(=C)[C@@H]4CC3)CC[C@@H]12` gave an AC50 at Pyruvate kinase PKM [1] of 15 nM. Take `CC(C)=CCC1=C(O)C(=O)c2ccccc2C1=O` [LAPACHOL]: the deltaG at Pyruvate kinase PKM [2] was -9.34 kcal/mol. On Pyruvate kinase PKM [3], this molecule had a concentration for half-maximal inhibition (IC50) of 1400 nM. As to `Cc1ccc(C)n1-c1ccc(O)c(C(=O)O)c1`, the “inhibition (INH)” value in the assay with NCI-H1299 [7] is recorded as 18.5%. Moreover, the inhibition was 81% against Pyruvate kinase PKM [5] and 34% against Pyruvate kinase PKM [6]. As to `COc1ccc(-c2cc(=O)c3c(OC)c(OC)c(OC)c(OC)c3o2)cc1` [TANGERETIN], at Pyruvate kinase PKM [1], the concentration at half-maximal activity (AC50) stood at 950 nM. This counts as sub-micromolar. In turn, `Cc1cc2c(s1)c1cnn(Cc3ccccc3F)c(=O)c1n2C` registered an AC50 at Pyruvate kinase PKM [8] of 60 nM. For the molecule `COc1cccc(Cn2ncc3c4sc([S+](C)[O-])cc4n(C)c3c2=O)c1` (stereo not given), the AC50 on Pyruvate kinase PKM [8] is 70 nM.

As to `Cn1cc(C(=O)c2cccc(Cl)c2Cl)cc1C(=O)NCCNC(=O)c1cc(C(=O)c2cccc(Cl)c2Cl)cn1C`, the activity at Pyruvate kinase PKM [1] was half-maximal at 10 nM (AC50). This counts as double-digit nanomolar. The molecule `COc1ccccc1N1CCN(C(=O)c2ccc(NS(=O)(=O)c3cccc4cccnc34)cc2)CC1` gave a concentration at half-maximal activity (AC50) on Pyruvate kinase PKM [1] of 10 nM. On to `O=C(O)CN1C(=O)/C(=C/c2ccc(OC(=O)c3ccccc3I)cc2)SC1=S`, for which the inhibition at Pyruvate kinase PKM [5] was determined as 84%; against Pyruvate kinase PKM [6], 36%.
